Assay results from PubChem BioAssay AID248 (DTP/NCI, 2004).
Several values for one entry are separate records, joined by “and”; a condition that tells them apart may be missing. Identical values can stand only once. Inconclusive results and toxic doses are left out. Cut-off read from the data, not from the text of the source: active = T/C of 150% or more; inactive = T/C below 125%.

Tested on: L1210 leukemia ip in BDF1 mice, survival T/C
Assay: NCI In Vivo Anticancer Drug Screen. Data for tumor model L1210 Leukemia (intraperitoneal) in B6D2F1 (BDF1) mice
Settings: endpoint: mean survival time, higher = longer survival
Outline: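 Ratio derived from survival: compound-dosed mice over vehicle-dosed mice, all bearing a transplantable tumor.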

Measured: T/C

CCOc1ccc(NC(=O)N/N=C(\C)CC(C)C)cc1
inactive: dose: 100.0 mg/kg/injection, schedule: Q01DX001 (ip), vehicle: Klucel (hydroxypropylcellulose) (HPC) 93 % of control | dose: 100.0 mg/kg/injection, schedule: Q01DX009 (ip), vehicle: Klucel (hydroxypropylcellulose) (HPC) 99 % of control and 102 % of control | dose: 100.0 mg/kg/injection, schedule: Q04DX002 (ip), vehicle: Klucel (hydroxypropylcellulose) (HPC) 95 % of control and 89 % of control | dose: 200.0 mg/kg/injection, schedule: Q01DX001 (ip), vehicle: Klucel (hydroxypropylcellulose) (HPC) 89 % of control | dose: 200.0 mg/kg/injection, schedule: Q01DX009 (ip), vehicle: Klucel (hydroxypropylcellulose) (HPC) 96 % of control and 101 % of control | dose: 200.0 mg/kg/injection, schedule: Q04DX002 (ip), vehicle: Klucel (hydroxypropylcellulose) (HPC) 103 % of control and 110 % of control | dose: 400.0 mg/kg/injection, schedule: Q01DX001 (ip), vehicle: Klucel (hydroxypropylcellulose) (HPC) 91 % of control | dose: 400.0 mg/kg/injection, schedule: Q01DX009 (ip), vehicle: Klucel (hydroxypropylcellulose) (HPC) 95 % of control and 102 % of control | dose: 400.0 mg/kg/injection, schedule: Q04DX002 (ip), vehicle: Klucel (hydroxypropylcellulose) (HPC) 104 % of control and 92 % of control

CC(=O)N(c1ccccc1OS(C)(=O)=O)S(C)(=O)=O
inactive: dose: 100.0 mg/kg/injection, schedule: Q04DX003 (ip), vehicle: Klucel (hydroxypropylcellulose) (HPC) 109 % of control | dose: 200.0 mg/kg/injection, schedule: Q04DX003 (ip), vehicle: Klucel (hydroxypropylcellulose) (HPC) 100 % of control | dose: 400.0 mg/kg/injection, schedule: Q04DX003 (ip), vehicle: Klucel (hydroxypropylcellulose) (HPC) 104 % of control

CCC(=O)OC1(c2ccccc2)CCN(CCNc2ccccc2)CC1
inactive: dose: 20.0 mg/kg/injection, schedule: Q04DX003 (ip), vehicle: Klucel (hydroxypropylcellulose) (HPC) 100 % of control | dose: 40.0 mg/kg/injection, schedule: Q04DX003 (ip), vehicle: Klucel (hydroxypropylcellulose) (HPC) 103 % of control | dose: 80.0 mg/kg/injection, schedule: Q04DX003 (ip), vehicle: Klucel (hydroxypropylcellulose) (HPC) 105 % of control

O=C(Nc1ccc(NC2=NCCN2)cc1)c1cc(Cl)cc(C(=O)Nc2ccc(NC3=NCCN3)cc2)c1
inactive: dose: 7.5 mg/kg/injection, schedule: Q01DX010 (ip), vehicle: saline 100 % of control | dose: 15.0 mg/kg/injection, schedule: Q01DX010 (ip), vehicle: saline 95 % of control | dose: 15.0 mg/kg/injection, schedule: Q01DX Z (ip), vehicle: saline 105 % of control | dose: 30.0 mg/kg/injection, schedule: Q01DX Z (ip), vehicle: saline 105 % of control

COc1cc(C=O)cc(Br)c1O
inactive: dose: 100.0 mg/kg/injection, schedule: Q04DX002 (ip), vehicle: saline with Tween-80 97 % of control | dose: 200.0 mg/kg/injection, schedule: Q04DX002 (ip), vehicle: saline with Tween-80 93 % of control | dose: 400.0 mg/kg/injection, schedule: Q04DX002 (ip), vehicle: saline with Tween-80 87 % of control
